Laboratory results: patent US20240391959A1, “BICYCLIC PEPTIDE LIGANDS […] FOR TRANSFERRIN RECEPTOR 1 (TfR1)” (BicycleTx Limited, priority 2020, published 2024)
Starred links: 1 amine or outer side, 2 acyl side, 3 side chain; linkers in the order of their positions; H or OH if unused. Positions of bridges follow the written chain, without caps; N, C: chain ends. Residues, ends and D or L forms follow the SMILES beside them. TATA = O=C(CC[*:1])N1CN(C(=O)CC[*:2])CN(C(=O)CC[*:3])C1; TATB = O=C(C[*:1])N1CN(C(=O)C[*:2])CN(C(=O)C[*:3])C1

What was measured:
human TfR1 [1] = molecular target: T1, human TfR1 (Homo sapiens, UniProt P02786); assay: TfR1 inhibition assay (Alpha assay, transferrin inhibition); conditions: inhibition of fluorescently labelled human transferrin binding; read-out: Geomean IC50 (μM) Human TfR1
Procedure: TfR1 inhibitory activity of peptides of the invention (IC50) was determined using Alpha assay, in accordance with the following method. Proteins, peptides and Alpha reagents were prepared to 5× concentration and 5 μl of each reagent added to 25 μl total volume in white 384-well Optiplate to make 1× final concentration. Fluorescently labelled human transferrin (Invitrogen, T2871) was diluted to 2.5 nM in 25 mM HEPES with 100 mM NaCl, 4 mM CaCl2, 0.5% BSA and 0.05% P20, pH 7.4. Human or cynomolgus TfR1 protein was diluted to 50 nM and unlabelled human transferrin (R&D Systems, 2914-HT) was diluted to 500 nM in the same assay buffer. Non-labelled peptides from DMSO stock were diluted 20-fold in the same assay buffer, followed by 1 in 3 serial dilution in assay buffer containing 5% DMSO to give 11-different concentrations. 5 μl fluorescently labelled transferrin, 5 μl human or cynomolgus TfR1, 5 μl non-labelled peptide or unlabelled human transferrin (R&D Systems, 2914-HT) were added to white 384-well Optiplate and incubated for 30 min. Anti-FITC Acceptor (PerkinElmer, AL127) was diluted 50-fold in assay buffer, 5 μl added to assay plate and incubated for 30 min. […] Luminescence measurements were conducted on a BMG PHERAstar FS or FSX equipped with an AlphaScreen 520-620 module at 25° C. following excitation at 680 nm. […]
Target sequence in this assay (P02786 whole entry): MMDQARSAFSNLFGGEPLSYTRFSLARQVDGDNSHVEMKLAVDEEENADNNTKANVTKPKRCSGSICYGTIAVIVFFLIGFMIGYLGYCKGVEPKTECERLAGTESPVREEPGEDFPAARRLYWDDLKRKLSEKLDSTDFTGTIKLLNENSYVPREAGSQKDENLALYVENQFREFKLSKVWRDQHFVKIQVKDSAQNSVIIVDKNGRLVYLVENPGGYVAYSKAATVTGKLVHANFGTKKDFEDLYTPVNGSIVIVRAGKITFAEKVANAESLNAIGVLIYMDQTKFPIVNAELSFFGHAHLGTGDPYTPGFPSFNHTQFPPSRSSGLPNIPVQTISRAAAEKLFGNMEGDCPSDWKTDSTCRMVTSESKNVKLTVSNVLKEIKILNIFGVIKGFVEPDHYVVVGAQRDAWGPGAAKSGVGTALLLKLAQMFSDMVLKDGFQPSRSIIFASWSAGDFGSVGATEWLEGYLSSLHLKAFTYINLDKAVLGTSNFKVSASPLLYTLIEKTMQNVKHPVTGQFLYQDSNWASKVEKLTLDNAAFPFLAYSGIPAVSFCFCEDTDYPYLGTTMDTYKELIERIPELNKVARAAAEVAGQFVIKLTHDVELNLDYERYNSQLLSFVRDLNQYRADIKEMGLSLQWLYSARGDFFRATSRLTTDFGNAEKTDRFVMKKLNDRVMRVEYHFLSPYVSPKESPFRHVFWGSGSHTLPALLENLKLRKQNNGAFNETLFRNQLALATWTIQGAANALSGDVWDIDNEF

cynomolgus TfR1 [2] = format: binding
cynomolgus TfR1 [3] = format: binding; remark: listed apart in the source
human TfR1 [4] = molecular target: T1, human TfR1; assay: biochemical; format: binding; parameters: His6-tagged TfR1 (a.a. 89-760) (ACRO Biosystems, CD1-H5243 and TFR-C524a); His6; purchased R&D Systems or Acro Biosystems 2474-TR or CD1-H5243; conditions: Human TfR1 Kd (nM)
Target sequence in this assay (P02786 89-760): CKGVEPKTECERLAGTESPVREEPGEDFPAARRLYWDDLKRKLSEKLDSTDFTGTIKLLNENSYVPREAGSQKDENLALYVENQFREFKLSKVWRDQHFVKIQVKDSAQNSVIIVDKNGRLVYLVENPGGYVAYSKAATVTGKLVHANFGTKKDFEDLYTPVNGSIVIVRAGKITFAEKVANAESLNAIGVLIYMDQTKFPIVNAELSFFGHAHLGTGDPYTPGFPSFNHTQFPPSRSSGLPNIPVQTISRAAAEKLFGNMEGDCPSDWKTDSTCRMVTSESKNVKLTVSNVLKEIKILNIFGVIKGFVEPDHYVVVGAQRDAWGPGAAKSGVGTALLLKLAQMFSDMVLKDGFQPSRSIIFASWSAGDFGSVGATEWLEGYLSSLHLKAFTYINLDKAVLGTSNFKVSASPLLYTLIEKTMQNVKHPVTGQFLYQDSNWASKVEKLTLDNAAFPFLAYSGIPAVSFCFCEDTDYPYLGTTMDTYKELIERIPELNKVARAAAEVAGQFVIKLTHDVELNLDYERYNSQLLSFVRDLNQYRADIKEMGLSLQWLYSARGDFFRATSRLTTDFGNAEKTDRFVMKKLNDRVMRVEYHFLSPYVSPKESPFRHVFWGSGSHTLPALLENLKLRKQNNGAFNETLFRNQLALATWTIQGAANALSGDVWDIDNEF

human TfR1 [5] = molecular target: T1, human TfR1; assay: biochemical; format: binding; parameters: His6-tagged TfR1 (a.a. 89-760) (ACRO Biosystems, CD1-H5243 and TFR-C524a); His6; purchased R&D Systems or Acro Biosystems 2474-TR or CD1-H5243
Target sequence in this assay (P02786 89-760): as above

Row | IC50 (human TfR1 [1]) [µM] | Structure (SMILES) | Kd (cynomolgus TfR1 [2]) [µM] | Ki (cynomolgus TfR1 [3]) [nM] | Kd (human TfR1 [4]) [nM] | Ki (human TfR1 [5]; Human TfR1 Ki (nM)) [nM] | Ki (human TfR1 [5]; Geomean Ki (μM)) [nM]
1 | 1.21 | CC[C@H](C)[C@@H]1NC(=O)[C@H](Cc2ccccc2)NC(=O)[C@H](C)NC(=O)[C@H](CC(C)C)NC(=O)CNC(=O)[C@@H]2CSCCC(=O)N3CN(CN(C3)C(=O)CCSC[C@@H](C(=O)N[C@@H](C)C(N)=O)NC(=O)[C@H](CCC(=O)O)NC1=O)C(=O)CCSC[C@H](NC(=O)[C@H](C)N)C(=O)N[C@@H](CCCNC(=N)N)C(=O)N[C@@H](CCC(=O)O)C(=O)N[C@@H](Cc1ccccc1)C(=O)N[C@@H](Cc1ccccc1)C(=O)N[C@@H](CC(=O)O)C(=O)N[C@@H]([C@@H](C)O)C(=O)N2 [BCY12452, A-(SEQ ID NO: 2)-A] (H-ACREFFDTCGLAFIECA-NH2; linker 2-9-16 via TATA; N-terminus and C-terminus assumed) |  |  |  |  | 
2 |  | CC[C@H](C)[C@@H]1NC(=O)[C@@H]2CSCC(=O)N3CN(CN(C3)C(=O)CSC[C@@H](C(=O)N[C@@H](C)C(N)=O)NC(=O)[C@H](Cc3ccc(O)cc3)NC(=O)[C@H](CO)NC1=O)C(=O)CSC[C@H](NC(=O)[C@H](C)N)C(=O)N[C@@H](CO)C(=O)N1CCC[C@H]1C(=O)N[C@@H](CC(=O)O)C(=O)N[C@@H](C)C(=O)N[C@@H](Cc1c[nH]cn1)C(=O)N[C@@H](CC(C)C)C(=O)NCC(=O)N2 [BCY15468, A-(SEQ ID NO: 9)-A] | 4.01 | 1230 | 29 | 103 | 
3 |  | CC[C@H](C)[C@@H]1NC(=O)[C@@H]2CSCC(=O)N3CN(CN(C3)C(=O)CSC[C@@H](C(=O)N[C@@H](CCC(=O)O)C(=O)N[C@@H](Cc3c[nH]cn3)C(=O)N[C@@H](CCC(N)=O)C(=O)N[C@@H](CCC(=O)O)C(N)=O)NC(=O)[C@H](Cc3ccc(O)cc3)NC(=O)[C@H](CO)NC1=O)C(=O)CSC[C@H](NC(=O)[C@H](C)N)C(=O)N[C@@H](CO)C(=O)N1CCC[C@H]1C(=O)N[C@@H](CC(=O)O)C(=O)N[C@@H](C)C(=O)N[C@@H](Cc1c[nH]cn1)C(=O)N[C@@H](CC(C)C)C(=O)NCC(=O)N2 [BCY17119, A-(SEQ ID NO: 9)-EHQE] (H-ACSPDAHLGCISYCEHQE-NH2; linker 2-10-14 via TATB) | 5.65 |  | 212 |  | 160
4 |  | CC[C@H](C)[C@@H]1NC(=O)[C@@H]2CSCC(=O)N3CN(CN(C3)C(=O)CSC[C@H](NC(C)=O)C(=O)N[C@@H](CO)C(=O)N[C@@H](C)C(=O)N[C@@H](CC(=O)O)C(=O)N[C@@H](C)C(=O)N[C@@H](Cc3c[nH]cn3)C(=O)N[C@@H](CC(C)C)C(=O)NCC(=O)N2)C(=O)CSC[C@@H](C(N)=O)NC(=O)[C@H](Cc2ccc(O)cc2)NC(=O)[C@H](CO)NC1=O [BCY17987, Ac-(SEQ ID NO: 19)] (Ac-CSADAHLGCISYC-NH2; linker 1-9-13 via TATB) | 5.14 |  | 50 | 383 | 42
5 |  | CC[C@H](C)[C@@H]1NC(=O)[C@@H]2CSCC(=O)N3CN(CN(C3)C(=O)CSC[C@@H](C(=O)N[C@@H](CCC(=O)O)C(=O)N3CCCC[C@H]3C(=O)N[C@@H](Cc3c[nH]c4ccccc34)C(N)=O)NC(=O)[C@H](Cc3ccc(O)cc3)NC(=O)[C@H](CO)NC1=O)C(=O)CSC[C@H](NC(C)=O)C(=O)N[C@@H](CO)C(=O)N1CCC[C@H]1C(=O)N[C@@H](CC(=O)O)C(=O)N[C@@H](C)C(=O)N[C@@H](Cc1c[nH]cn1)C(=O)N[C@@H](CC(C)C)C(=O)NCC(=O)N2 [BCY18039, Ac-(SEQ ID NO: 9)-E[Pip]W] | 0.819 |  | 8.6 | 8 | 8
